Reference: patent publication US20150291593A1, “NOVEL HETEROARYL AND HETEROCYCLE COMPOUNDS, COMPOSITIONS AND METHODS” (HUTCHISON MEDIPHARMA LIMITED, priority 2012, published 2015)

What was measured:
PI3Kγ = target: T1, PI3Kγ (Mus musculus, UniProt Q9JHG7); assay: Acumen Assay - Raw264.7 p-AKT Assay (C5a stimulated); format: cell-based; details: Raw264.7 macrophage cells, compound 30 min, 10 nM C5a 5 min, p-AKT (Ser473) readout; read-out: PI3Kγ cell-C5a Raw264.7 IC50
T1 construct: endogenous in cells; host or cells: Raw264.7 macrophage cells
Protocol: Acumen® eX3 (A Mμltilaser Microplate Cytometer For Enhanced High Content Screening): TTP LabTech
3×10^4 Raw264.7 macrophage cells were seeded into 96-well plates with DMEM+10% heat-inactivated FBS at […], 90 ul/well, overnight. After starvation for 3 hr at 37° C. under 5% CO2, Raw264.7 cells were treated with 10 ul/well various concentrations of compound or 0.5% DMSO for 30 min, and then stimulated with 10 ul/well 10 nM C5a for 5 min.
1.) Cells were fixed 110 μL of 4% pre-warmed Paraformaldehyde (2% final), incubate for 45 min at room temperature.
2.) Remove paraformaldehyde solution. Add 100 μL of ice-cold 0.1% Triton X-100 in PBS and leave at 4° C. for 30 min.
3.) Wash once in 100 μL PBS.
4.) Incubate with 100 μL blocking buffer (1% BSA, in PBS) for 2 hours at room temperature.
5.) Wash once for 5 min with 100 ul PBS.
6.) Incubate with 40 μL 1:200 dilution of phospho AKT (Ser473) rabbit antibody in antibody dilution buffer (0.1% BSA, in PBS) overnight at 4° C.
7.) Wash for 3 times for 10 min with 100 ul PBS.
8.) Incubate for 90 min at room temperature with 50 μL of goat anti-rabbit Alex488 antibody at a 1:1,000 dilution in antibody dilution buffer (0.1% BSA, in PBS). Cover plate in foil to keep out of light.
9.) Wash for 3 times for 10 min with 100 μL PBS.
10.) Add 50 μL of 1.5 μM Propidium Iodide solution to each well to determine cell number at a 1:1,000 dilution in PBS (stock: 1.5 mM).
11.) Incubate at room temperature for 30 min.
12.) Seal the plate with a black cover-seal (supplied with plate).
13.) Load the plate into the Acumen Explorer and scan with the appropriate instrument settings.

p110β/p85α = target: T2, p110β/p85α (Homo sapiens, UniProt P42338); assay: Transcreener KINASE Assay, kinase inhibition of p110β/p85α; format: biochemical; details: for IC50: read-out: PI3Kβ IC50
T2 construct: purchased Millipore
Protocol: (§1) PI3K kinases including p110α/p85α, p110δ/p85α and p110γ are purchased from Invitrogen, and p110β/p85α is from Millipore.
(§2) Primary screening data and IC50 values are measured using Transcreener™ KINASE Assay (Bellbrook, Catalog #3003-10K). […] It is a universal, homogenous, high throughput screening (HTS) technology using a far-red, competitive fluorescence polarization immunoassay based on the detection of ADP to monitor the activity of enzymes that catalyze group transfer reactions. Briefly, the Transcreener KINASE Assay is designed as a simple two-part, endpoint assay.
(§3) In the first step, the 25 ul kinase reaction is performed by preparing a reaction mixture containing 5 ul test compound (2% DMSO final concentration), 10 ul kinase, buffer (50 mM HEPES, 100 mM NaCl, 1 mM EGTA, 0.03% CHAPS, 3 mM MgCl2, and freshly supplemented 1 mM DTT), and 10 ul 30 uM PIP2/10 uM ATP. The plate is sealed and incubated for 80 min at room temperature. Next, 25 ul ADP detection mix is added per well. The plate is sealed again and incubated for 60 min at room temperature, and then measure fluorescence polarization by Tecan Infinite F500 Reader.
(§4) Data is analyzed and IC50s are generated using the add-in software for Microsoft Excel, Xlfit™ (version 2.0). IH %=(ADP amount under 2% DMSO-ADP amount under test compound)/ADP amount under 2% DMSO.

p110γ = target: T3, p110γ (Homo sapiens, UniProt P48736); assay: Transcreener KINASE Assay, kinase inhibition of p110γ; format: biochemical; details: for IC50: read-out: PI3Kγ IC50
T3 construct: purchased Invitrogen
Protocol: PI3K kinases including p110α/p85α, p110δ/p85α and p110γ are purchased from Invitrogen, and p110β/p85α is from Millipore. Primary screening data and IC50 values are measured using Transcreener™ KINASE Assay (Bellbrook, Catalog #3003-10K). […] It is a universal, homogenous, high throughput screening (HTS) technology using a far-red, competitive fluorescence polarization immunoassay based on the detection of ADP to monitor the activity of enzymes that catalyze group transfer reactions. Briefly, the Transcreener KINASE Assay is designed as a simple two-part, endpoint assay. […] The plate is sealed and incubated for 80 min at room temperature. Next, 25 ul ADP detection mix is added per well. The plate is sealed again and incubated for 60 min at room temperature, and then measure fluorescence polarization by Tecan Infinite F500 Reader. Data is analyzed and IC50s are generated using the add-in software for Microsoft Excel, Xlfit™ (version 2.0).

p110δ/p85α = target: T4, p110δ/p85α (Homo sapiens, UniProt O00329); assay: Transcreener KINASE Assay, kinase inhibition of p110δ/p85α; format: biochemical; details: for IC50: read-out: PI3Kδ IC50
T4 construct: purchased Invitrogen
Protocol: as §1, §2, §3, §4

p110α/p85α = target: T5, p110α/p85α (Homo sapiens, UniProt P42336); assay: Transcreener KINASE Assay, kinase inhibition of p110α/p85α; format: biochemical
T5 construct: purchased Invitrogen
Protocol: as §1, §2, §3, §4

T2 sequence (P42338 whole entry, species assumed): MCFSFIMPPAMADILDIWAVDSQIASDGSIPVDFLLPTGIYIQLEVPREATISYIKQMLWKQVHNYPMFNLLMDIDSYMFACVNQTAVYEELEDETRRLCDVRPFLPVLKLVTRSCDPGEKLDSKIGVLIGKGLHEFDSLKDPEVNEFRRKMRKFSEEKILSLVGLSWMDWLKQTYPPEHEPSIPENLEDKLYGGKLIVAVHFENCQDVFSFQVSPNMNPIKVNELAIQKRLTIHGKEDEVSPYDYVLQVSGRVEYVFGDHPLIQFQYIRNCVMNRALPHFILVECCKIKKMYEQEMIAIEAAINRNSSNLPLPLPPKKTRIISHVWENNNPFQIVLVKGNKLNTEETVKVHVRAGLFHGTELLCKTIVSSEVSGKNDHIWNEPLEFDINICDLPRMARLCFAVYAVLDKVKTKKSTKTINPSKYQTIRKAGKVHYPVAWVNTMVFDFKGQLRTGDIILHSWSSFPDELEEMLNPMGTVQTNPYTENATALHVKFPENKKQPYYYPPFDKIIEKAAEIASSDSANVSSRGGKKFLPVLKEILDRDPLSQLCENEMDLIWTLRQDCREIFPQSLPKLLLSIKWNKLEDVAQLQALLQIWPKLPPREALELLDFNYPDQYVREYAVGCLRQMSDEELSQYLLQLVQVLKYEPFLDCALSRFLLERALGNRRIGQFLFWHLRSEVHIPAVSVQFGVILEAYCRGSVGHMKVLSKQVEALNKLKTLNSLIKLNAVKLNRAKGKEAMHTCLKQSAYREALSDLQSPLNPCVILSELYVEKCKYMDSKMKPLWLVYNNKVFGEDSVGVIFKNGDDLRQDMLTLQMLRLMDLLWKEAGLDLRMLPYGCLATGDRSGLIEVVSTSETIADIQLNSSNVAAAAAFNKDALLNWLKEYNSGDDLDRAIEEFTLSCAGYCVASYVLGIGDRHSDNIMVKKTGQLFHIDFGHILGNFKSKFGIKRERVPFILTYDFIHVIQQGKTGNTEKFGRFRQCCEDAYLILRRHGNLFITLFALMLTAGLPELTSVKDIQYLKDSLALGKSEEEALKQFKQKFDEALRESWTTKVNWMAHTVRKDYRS
T2 sequence (P27986 whole entry partner, species assumed): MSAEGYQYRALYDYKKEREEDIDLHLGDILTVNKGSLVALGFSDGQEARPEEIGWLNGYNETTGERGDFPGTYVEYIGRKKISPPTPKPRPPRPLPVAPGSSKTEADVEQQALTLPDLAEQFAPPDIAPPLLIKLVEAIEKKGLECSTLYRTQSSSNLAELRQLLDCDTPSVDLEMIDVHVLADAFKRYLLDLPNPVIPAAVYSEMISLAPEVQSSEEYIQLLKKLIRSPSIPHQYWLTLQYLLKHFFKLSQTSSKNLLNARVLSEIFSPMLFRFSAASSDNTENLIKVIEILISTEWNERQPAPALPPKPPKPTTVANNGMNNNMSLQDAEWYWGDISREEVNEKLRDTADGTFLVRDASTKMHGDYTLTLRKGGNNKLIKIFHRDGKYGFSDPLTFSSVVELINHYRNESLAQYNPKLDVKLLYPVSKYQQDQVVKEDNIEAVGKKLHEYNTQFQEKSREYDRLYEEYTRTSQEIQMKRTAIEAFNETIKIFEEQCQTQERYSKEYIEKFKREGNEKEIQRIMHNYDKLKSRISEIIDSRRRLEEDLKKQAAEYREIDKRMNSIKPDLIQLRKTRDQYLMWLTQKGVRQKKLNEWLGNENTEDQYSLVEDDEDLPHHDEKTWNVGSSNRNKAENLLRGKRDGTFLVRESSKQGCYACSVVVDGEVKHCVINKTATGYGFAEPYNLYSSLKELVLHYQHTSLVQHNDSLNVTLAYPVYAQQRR
T3 sequence (P48736 whole entry, species assumed): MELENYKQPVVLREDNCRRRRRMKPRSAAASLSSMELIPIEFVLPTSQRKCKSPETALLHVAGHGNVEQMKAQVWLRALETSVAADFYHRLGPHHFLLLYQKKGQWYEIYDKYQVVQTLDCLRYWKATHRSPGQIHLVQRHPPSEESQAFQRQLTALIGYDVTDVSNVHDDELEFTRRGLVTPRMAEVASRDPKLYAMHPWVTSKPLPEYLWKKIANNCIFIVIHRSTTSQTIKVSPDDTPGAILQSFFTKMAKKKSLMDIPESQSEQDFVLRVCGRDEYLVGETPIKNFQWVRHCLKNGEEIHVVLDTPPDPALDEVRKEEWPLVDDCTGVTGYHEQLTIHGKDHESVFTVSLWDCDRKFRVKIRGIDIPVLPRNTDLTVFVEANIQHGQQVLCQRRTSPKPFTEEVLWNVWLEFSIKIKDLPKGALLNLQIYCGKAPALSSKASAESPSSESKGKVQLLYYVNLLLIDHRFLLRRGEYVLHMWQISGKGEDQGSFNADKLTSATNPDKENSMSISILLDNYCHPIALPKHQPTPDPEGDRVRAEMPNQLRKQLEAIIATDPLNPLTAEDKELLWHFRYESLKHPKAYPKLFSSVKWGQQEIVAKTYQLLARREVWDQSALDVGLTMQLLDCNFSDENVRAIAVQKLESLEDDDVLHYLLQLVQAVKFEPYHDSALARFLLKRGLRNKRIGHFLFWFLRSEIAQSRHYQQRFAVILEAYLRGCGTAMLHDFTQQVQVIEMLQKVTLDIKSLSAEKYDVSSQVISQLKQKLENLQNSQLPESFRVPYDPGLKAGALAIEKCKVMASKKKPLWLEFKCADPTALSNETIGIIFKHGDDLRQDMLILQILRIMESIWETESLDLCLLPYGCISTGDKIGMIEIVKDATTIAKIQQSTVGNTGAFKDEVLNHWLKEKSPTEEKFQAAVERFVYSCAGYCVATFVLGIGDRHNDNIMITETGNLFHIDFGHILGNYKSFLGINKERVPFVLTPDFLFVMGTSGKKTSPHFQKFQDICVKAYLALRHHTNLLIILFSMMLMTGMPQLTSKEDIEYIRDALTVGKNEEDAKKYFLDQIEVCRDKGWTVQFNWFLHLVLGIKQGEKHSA
T5 sequence (P42336 whole entry, species assumed): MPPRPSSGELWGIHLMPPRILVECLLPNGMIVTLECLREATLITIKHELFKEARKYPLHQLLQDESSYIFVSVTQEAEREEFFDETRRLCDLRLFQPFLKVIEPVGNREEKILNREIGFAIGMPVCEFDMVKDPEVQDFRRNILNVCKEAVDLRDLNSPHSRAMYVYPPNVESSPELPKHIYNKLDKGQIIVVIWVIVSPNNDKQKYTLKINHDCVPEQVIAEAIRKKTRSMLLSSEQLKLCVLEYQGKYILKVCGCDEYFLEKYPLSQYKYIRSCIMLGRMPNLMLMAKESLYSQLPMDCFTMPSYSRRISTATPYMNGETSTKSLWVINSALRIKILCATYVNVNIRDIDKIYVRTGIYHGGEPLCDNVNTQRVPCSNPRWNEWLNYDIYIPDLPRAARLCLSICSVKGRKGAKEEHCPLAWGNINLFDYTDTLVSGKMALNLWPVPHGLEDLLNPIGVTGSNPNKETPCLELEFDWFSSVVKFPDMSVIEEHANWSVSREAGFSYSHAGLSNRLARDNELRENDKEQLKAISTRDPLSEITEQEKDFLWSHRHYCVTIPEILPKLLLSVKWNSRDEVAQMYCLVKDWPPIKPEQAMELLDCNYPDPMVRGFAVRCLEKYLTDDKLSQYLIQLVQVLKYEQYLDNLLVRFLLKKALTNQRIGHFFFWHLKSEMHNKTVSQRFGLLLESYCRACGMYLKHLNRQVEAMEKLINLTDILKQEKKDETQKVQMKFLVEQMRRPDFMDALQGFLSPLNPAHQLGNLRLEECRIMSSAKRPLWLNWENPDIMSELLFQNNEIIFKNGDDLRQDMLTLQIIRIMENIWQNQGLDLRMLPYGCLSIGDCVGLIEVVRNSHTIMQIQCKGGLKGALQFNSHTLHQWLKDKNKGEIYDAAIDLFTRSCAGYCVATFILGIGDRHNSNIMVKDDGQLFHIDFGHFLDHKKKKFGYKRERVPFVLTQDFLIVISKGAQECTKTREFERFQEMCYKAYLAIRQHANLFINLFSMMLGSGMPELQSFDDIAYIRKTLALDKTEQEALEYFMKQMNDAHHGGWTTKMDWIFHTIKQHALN
T5 sequence (P27986 whole entry partner, species assumed): as the sequence (P27986 whole entry partner, species assumed) above
T1 sequence (Q9JHG7 whole entry): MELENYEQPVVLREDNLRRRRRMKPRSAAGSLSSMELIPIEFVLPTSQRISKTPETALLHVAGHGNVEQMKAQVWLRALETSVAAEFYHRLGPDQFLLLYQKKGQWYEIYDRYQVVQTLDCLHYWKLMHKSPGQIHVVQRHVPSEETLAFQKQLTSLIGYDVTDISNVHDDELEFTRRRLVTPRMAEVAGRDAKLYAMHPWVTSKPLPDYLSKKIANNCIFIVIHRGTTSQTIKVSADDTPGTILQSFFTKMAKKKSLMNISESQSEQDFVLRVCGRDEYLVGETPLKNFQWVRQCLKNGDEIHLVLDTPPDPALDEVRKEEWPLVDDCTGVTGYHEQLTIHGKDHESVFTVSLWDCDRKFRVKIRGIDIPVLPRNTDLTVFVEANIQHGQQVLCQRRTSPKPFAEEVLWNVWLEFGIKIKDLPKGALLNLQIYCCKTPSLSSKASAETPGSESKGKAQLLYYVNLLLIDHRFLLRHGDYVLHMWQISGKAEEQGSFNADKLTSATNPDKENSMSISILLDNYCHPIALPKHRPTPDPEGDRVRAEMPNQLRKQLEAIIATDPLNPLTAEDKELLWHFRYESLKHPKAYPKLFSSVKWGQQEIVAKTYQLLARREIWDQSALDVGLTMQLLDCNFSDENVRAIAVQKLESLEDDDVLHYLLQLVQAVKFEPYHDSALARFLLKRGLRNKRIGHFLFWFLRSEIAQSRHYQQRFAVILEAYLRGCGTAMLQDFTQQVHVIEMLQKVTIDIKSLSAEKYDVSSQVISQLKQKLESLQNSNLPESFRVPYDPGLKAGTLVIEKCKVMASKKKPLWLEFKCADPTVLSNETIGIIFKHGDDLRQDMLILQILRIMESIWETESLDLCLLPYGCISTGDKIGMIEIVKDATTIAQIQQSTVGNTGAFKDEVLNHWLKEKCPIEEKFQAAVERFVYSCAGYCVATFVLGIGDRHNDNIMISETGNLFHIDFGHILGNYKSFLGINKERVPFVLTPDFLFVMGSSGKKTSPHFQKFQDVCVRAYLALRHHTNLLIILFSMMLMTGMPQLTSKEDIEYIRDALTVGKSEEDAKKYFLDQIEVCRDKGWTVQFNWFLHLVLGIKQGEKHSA

| IC50 (PI3Kγ) | IC50 (p110β/p85α) | IC50 (p110γ) | IC50 (p110δ/p85α) | PI3Kβ IH % @ 1 uM (p110β/p85α) | PI3Kα IH % @ 1 uM (p110α/p85α) | PI3Kγ IH % @ 1 uM (p110γ) | PI3Kδ IH % @ 1 uM (p110δ/p85α) | IC50 (p110α/p85α; read-out: PI3Kα IC50) | Compound |
| --- | --- | --- | --- | --- | --- | --- | --- | --- | --- |
| 0.063 µM | 0.068 µM | 0.002 µM | 0.001 µM |  |  |  |  |  | CC(Nc1nc(N)nc2c1C(=O)CCN2)c1cn2ccc(F)c2c(=O)n1-c1ccccc1 (single isomer, unassigned) [Compound 407] |
| 0.087 µM | 0.045 µM | 0.004 µM | 0.001 µM |  |  |  |  |  | CC(Nc1nc(N)ncc1C#N)c1cn2ccc(F)c2c(=O)n1-c1ccccc1 (single isomer, unassigned) [Compound 449] |
| 0.072 µM | 0.042 µM | 0.017 µM | 0.0004 µM |  |  |  |  |  | CC(Nc1ncnc2[nH]cc(F)c12)c1cc2ncc(Cl)n2c(=O)n1-c1ccccc1 (single isomer, unassigned) [Compound 450] |
|  |  |  |  | 38.0% | 5.1% | 98.8% | 98.2% |  | Nc1nc(N2CCC[C@H]2c2nn3cccc3c(=O)n2-c2ccccc2)c2nc[nH]c2n1 [Compound 2] |
|  |  | 0.365 µM | 0.015 µM | 17.8% | 12.0% | 82.5% | >100% |  | O=c1c2cccn2nc([C@@H]2CCCN2c2ncnc3[nH]cc(Cl)c23)n1-c1ccccc1 [Compound 3] |
| 3.94 µM |  |  | 0.01 µM | 17.4% | 2.6% | 92.4% | 94.1% |  | O=c1c2cccn2nc([C@@H]2CCCN2c2ncnc3[nH]cnc23)n1-c1ccccc1 [Compound 4] |
|  |  |  |  | 46.4% | 32.5% | 69.6% | 98.3% |  | N#Cc1c(N)ncnc1N1CCC[C@H]1c1nn2cccc2c(=O)n1-c1ccccc1 [Compound 5] |
|  |  | 0.312 µM |  | 5.4% | 24.6% | 72.0% | 100% |  | N#Cc1c[nH]c2ncnc(N3CCC[C@H]3c3nn4cccc4c(=O)n3-c3cccc(Cl)c3)c12 [Compound 15] |
|  |  | 0.022 µM |  | 53.5% | 36.3% | >100% | >100% |  | NC(=O)c1c[nH]c2ncnc(N3CCC[C@H]3c3nn4cccc4c(=O)n3-c3ccccc3)c12 [Compound 94, (S)-4-(2-(4-oxo-3-phenyl-3,4-dihydropyrrolo[1,2-f][1,2,4]triazin-2-yl)pyrrolidin-1-yl)-7H-pyrrolo[2,3-d]pyrimidine-5-carboxamide] |
|  |  | 0.099 µM |  | 15.2% | 16.2% | 87.9% | 88.4% |  | C=Cc1c[nH]c2ncnc(N3CCC[C@H]3c3nn4cccc4c(=O)n3-c3ccccc3)c12 [Compound 98, (S)-3-phenyl-2-(1-(5-vinyl-7H-pyrrolo[2,3-d]pyrimidin-4-yl)pyrrolidin-2-yl)pyrrolo[1,2-f][1,2,4]triazin-4(3H)-one] |
|  | 0.244 µM | 0.043 µM | 0.006 µM | 74.9% | 28.3% | >100% | 99.3% |  | N#Cc1c[nH]c2ncnc(N3CCC[C@H]3c3nn4ccc(C#N)c4c(=O)n3-c3ccccc3)c12 [Compound 113] |
|  |  |  |  |  |  |  |  | > 1 µM | N#Cc1cnc(N)nc1N1CC[C@H]1c1nn2ccc(Cl)c2c(=O)n1-c1ccccc1 [Compound 212] |
| 0.046 µM | 0.081 µM | 0.004 µM | 0.002 µM |  |  |  |  |  | C[C@H]1CCN(c2nc(N)ncc2C#N)C1c1nn2ccc(Cl)c2c(=O)n1-c1ccccc1 (stereo partly drawn) [Compound 236] |
| 0.08 µM | > 1 µM |  |  |  |  |  |  |  | Nc1ncc(C(=O)C(F)(F)F)c(N2CC[C@H]2c2nn3ccc(Cl)c3c(=O)n2-c2ccccc2)n1 [Compound 325] |

| Compound | IC50 (PI3Kγ) | IC50 (p110β/p85α) | IC50 (p110γ) | IC50 (p110δ/p85α) | PI3Kβ IH % @ 1 uM (p110β/p85α) | PI3Kα IH % @ 1 uM (p110α/p85α) | PI3Kγ IH % @ 1 uM (p110γ) | PI3Kδ IH % @ 1 uM (p110δ/p85α) | IC50 (p110α/p85α; read-out: PI3Kα IC50) |
| --- | --- | --- | --- | --- | --- | --- | --- | --- | --- |
| N#Cc1c[nH]c2ncnc(N3CCC[C@H]3c3nn4cccc4c(=O)n3-c3ccccc3)c12 [Compound 1, (S)-4-(2-(4-oxo-3-phenyl-3,4-dihydropyrrolo[1,2-f][1,2,4]triazin-2-yl)pyrrolidin-1-yl)-7H-pyrrolo[2,3-d]pyrimidine-5-carbonitrile] |  |  |  | 0.002 µM | 47.7% | 50.8% | 91.9% | 97.8% |  |
